Measured values reported in ChEMBL document CHEMBL1201862, “PubChem BioAssay data set” (2004).
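96-well plates; 48 h exposure; 5 concentrations. Endpoints by linear interpolation between flanking doses. Not reached: highest tested concentration assigned. GI50: concentration for 50% inhibition of growth.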 Activity calls are given as the source filed them. Rule as the data show it: active = GI50 up to about 1.1 µM and inactive = higher.

What was measured:
Test in all cases: NCI tumour cell line growth inhibition, 48 h
SW-620 = system: SW-620
OVCAR-8 = system: OVCAR-8
A498 = system: A498
SF-539 = system: SF-539
NCI-H23 = system: NCI-H23
TK-10 = system: TK-10
OVCAR-5 = system: OVCAR-5
M14 = system: M14
SK-MEL-28 = system: SK-MEL-28
HOP-92 = system: HOP-92
RPMI-8226 = system: RPMI-8226
KM12 = system: KM12
SK-MEL-2 = system: SK-MEL-2
SNB-19 = system: SNB-19
CCRF-CEM = system: CCRF-CEM
A549 = system: A549
HCT-116 = system: HCT-116
SR = system: SR

Measured: GI50

C=CCN(N=O)C(=O)NCCCCC(NC(C)=O)C(=O)NCc1ccccc1 (configuration not stated)
inactive: SW-620 > 100 µM | OVCAR-8 > 100 µM | A498 > 100 µM | SF-539 > 100 µM | NCI-H23 > 100 µM | TK-10 > 100 µM | OVCAR-5 > 100 µM | M14 > 100 µM | SK-MEL-28 > 100 µM | HOP-92 > 100 µM | RPMI-8226 > 100 µM | KM12 > 100 µM | SK-MEL-2 72.6 µM | SNB-19 > 100 µM | CCRF-CEM > 100 µM | A549 > 100 µM

c1ccc2c(c1)n1nnnc1c1nnnn21
inactive: SW-620 > 100 µM | OVCAR-8 92.7 µM | A498 > 100 µM | SF-539 78.9 µM | NCI-H23 > 100 µM | TK-10 > 100 µM | OVCAR-5 > 100 µM | M14 > 100 µM | SK-MEL-28 > 100 µM | HOP-92 18.6 µM | RPMI-8226 > 100 µM | KM12 > 100 µM | SK-MEL-2 > 100 µM | SNB-19 > 100 µM | CCRF-CEM > 100 µM | HCT-116 > 100 µM | A549 > 100 µM

N/N=C1\C(=O)N(c2ccc(Cl)c(Cl)c2)C(=O)C1C(=O)Nc1ccc(Cl)c(Cl)c1 (configuration not stated)
inactive: SW-620 91.4 µM | OVCAR-8 42.8 µM | A498 44.3 µM | SF-539 79.6 µM | NCI-H23 40.6 µM | TK-10 > 100 µM | OVCAR-5 88.7 µM | M14 > 100 µM | SK-MEL-28 31 µM | HOP-92 48.1 µM | RPMI-8226 > 100 µM | KM12 50.7 µM | SK-MEL-2 50.4 µM | SNB-19 28.2 µM | CCRF-CEM 34.4 µM | HCT-116 75.2 µM | A549 42.9 µM

CC(=O)OC1(C#N)CC2OC1C1C2N1C(=O)c1ccccc1 (configuration not stated)
inactive: SW-620 > 100 µM | OVCAR-8 > 100 µM | A498 > 100 µM | SF-539 > 100 µM | NCI-H23 > 100 µM | TK-10 > 100 µM | OVCAR-5 > 100 µM | M14 > 100 µM | SK-MEL-28 > 100 µM | HOP-92 > 100 µM | RPMI-8226 > 100 µM | SK-MEL-2 > 100 µM | SNB-19 > 100 µM | CCRF-CEM > 100 µM | HCT-116 > 100 µM | A549 > 100 µM

CC12Nc3ccccc3C1=C(c1ccccc1)CC1C(=O)OC(=O)C12 (configuration not stated)
inactive: SW-620 > 100 µM | OVCAR-8 > 100 µM | SF-539 > 100 µM | NCI-H23 > 100 µM | TK-10 > 100 µM | OVCAR-5 > 100 µM | M14 > 100 µM | SK-MEL-28 > 100 µM | HOP-92 > 100 µM | RPMI-8226 > 100 µM | KM12 > 100 µM | SK-MEL-2 > 100 µM | SNB-19 > 100 µM | CCRF-CEM > 100 µM | HCT-116 > 100 µM | A549 > 100 µM

Cc1[nH]c2cc([N+](=O)[O-])ccc2c1[N+](=O)[O-]
inactive: SW-620 25.2 µM | OVCAR-8 25.8 µM | A498 17.3 µM | SF-539 18.8 µM | NCI-H23 17.7 µM | TK-10 29.7 µM | OVCAR-5 27.2 µM | M14 19.5 µM | SK-MEL-28 21 µM | HOP-92 3.9 µM | RPMI-8226 10.5 µM | KM12 21.3 µM | SK-MEL-2 14.1 µM | SNB-19 18.7 µM | CCRF-CEM 16.8 µM | A549 17.1 µM

COC(=O)CCC(NC(=S)N/N=C(\C)c1ccc[nH]1)C(=O)OC (configuration not stated)
inactive: SW-620 > 100 µM | OVCAR-8 > 100 µM | A498 > 100 µM | SF-539 > 100 µM | NCI-H23 > 100 µM | TK-10 > 100 µM | OVCAR-5 > 100 µM | M14 > 100 µM | SK-MEL-28 > 100 µM | HOP-92 > 100 µM | KM12 > 100 µM | SK-MEL-2 > 100 µM | SNB-19 > 100 µM | CCRF-CEM > 100 µM | HCT-116 > 100 µM | A549 > 100 µM

Cc1ccc(C)c(NC(=O)C(=O)C2C(=O)N(c3ccccc3)N=C2N)c1 (configuration not stated)
inactive: SW-620 > 100 µM | OVCAR-8 > 100 µM | A498 > 100 µM | SF-539 > 100 µM | NCI-H23 > 100 µM | TK-10 > 100 µM | OVCAR-5 > 100 µM | M14 > 100 µM | SK-MEL-28 > 100 µM | HOP-92 > 100 µM | RPMI-8226 > 100 µM | KM12 > 100 µM | SK-MEL-2 > 100 µM | SNB-19 > 100 µM | CCRF-CEM > 100 µM | HCT-116 > 100 µM | A549 > 100 µM

COc1ccc(CCN2CCC(C#N)(c3ccc(OC)c(OC)c3)CC2)cc1OC
inactive: SW-620 > 100 µM | OVCAR-8 > 100 µM | SR > 100 µM | SF-539 > 100 µM | NCI-H23 > 100 µM | TK-10 76.2 µM | OVCAR-5 > 100 µM | M14 > 100 µM | SK-MEL-28 > 100 µM | HOP-92 13.5 µM | RPMI-8226 > 100 µM | KM12 > 100 µM | SK-MEL-2 > 100 µM | SNB-19 > 100 µM | CCRF-CEM > 100 µM | HCT-116 > 100 µM | A549 > 100 µM

COc1ccc(C2=C(Cl)c3cc(OC)c(OC)cc3C2OC)cc1OC (configuration not stated)
inactive: SW-620 19.5 µM | OVCAR-8 > 100 µM | A498 > 100 µM | SF-539 65.2 µM | NCI-H23 > 100 µM | TK-10 > 100 µM | OVCAR-5 > 100 µM | M14 > 100 µM | SK-MEL-28 > 100 µM | HOP-92 > 100 µM | RPMI-8226 23.8 µM | KM12 > 100 µM | SK-MEL-2 > 100 µM | SNB-19 > 100 µM | CCRF-CEM 50.2 µM | HCT-116 95.7 µM | A549 > 100 µM

O=C1CCC(=O)N1Sc1ccccc1
inactive: SW-620 > 100 µM | OVCAR-8 > 100 µM | A498 > 100 µM | SF-539 > 100 µM | NCI-H23 > 100 µM | TK-10 > 100 µM | M14 > 100 µM | SK-MEL-28 > 100 µM | HOP-92 > 100 µM | RPMI-8226 > 100 µM | KM12 > 100 µM | SK-MEL-2 > 100 µM | SNB-19 > 100 µM | CCRF-CEM 42.4 µM | HCT-116 > 100 µM | A549 > 100 µM

COC(=O)c1ccc(N/C=C(/C#N)c2ccsc2)cc1
inactive: SW-620 21.3 µM | OVCAR-8 6.61 µM | SR > 100 µM | A498 4.06 µM | SF-539 15.9 µM | NCI-H23 10.7 µM | TK-10 16.8 µM | OVCAR-5 > 100 µM | SK-MEL-28 15.6 µM | RPMI-8226 20.7 µM | KM12 12.9 µM | SK-MEL-2 22.2 µM | SNB-19 12.2 µM | CCRF-CEM > 100 µM | HCT-116 8.57 µM | A549 15.4 µM
